“And” between values parts separate entries of the source, which are not always exact repeats. Identical values can stand only once. Blank lines part the entries; values can stand above or below the molecule they belong to.
Experiments:
[1] = tested on: human liver microsomes; conditions: 0.5 h, 1 μM, pH 7.4
[2] = Phase 1 drug-drug interaction study: safety and tolerability (TEAEs); conditions: healthy male and female volunteers
[3] = Phase 1 drug-drug interaction study: single-dose pemigatinib PK alone or with itraconazole or rifampin
[4] = human, in vivo
[5] = Cohort 2: 13.5 mg pemigatinib alone or with rifampin 600 mg QD, geometric mean
[6] = Cohort 2: 13.5 mg pemigatinib alone or with rifampin 600 mg QD, mean ± SD

Mean Percent of Pemigatinib Remaining After 30-Minute Incubation (N = 3) [1]: 67 ± 1%
SMILES: Cc1nc2c([nH]1)c(=O)n(C)c(=O)n2Cc1ccco1 [Furafylline]

SMILES: CCN1C(=O)N(c2c(F)c(OC)cc(OC)c2F)Cc2cnc3[nH]c(CN4CCOCC4)cc3c21 [Pemigatinib + rifampin]
Safety and tolerability (overall conclusion) [2]: safe and generally well tolerated
AUC0-t [3, 5]: 0.28 µM·h
AUC0-∞ [3, 5]: 0.292 µM·h
CL/F [3, 5]: 94.7 L/h
Cmax [3, 5]: 66.9 nM
t1/2 [3, 5]: 4.7 h and 4.69 h
AUC0-t [3, 6]: 0.289 ± 0.0749 µM·h
AUC0-∞ [3, 6]: 0.301 ± 0.0755 µM·h
CL/F [3, 6]: 97.5 ± 23.8 L/h
t1/2 [3, 6]: 5.05 ± 2.76 h
Tmax ([3]; Cohort 2: 13.5 mg pemigatinib alone or with rifampin 600 mg QD, median): 1.00 h
Cmax ([3]; Cohort 2: healthy volunteers n=18, single oral 13.5 mg pemigatinib fasted, alone or with rifampin 600 mg QD, mean ± SD): 69.7 ± 20 nM
Change in pemigatinib exposure on coadministration ([3]; with potent CYP3A4 inhibitor or inducer, healthy volunteers): clinically significant decrease
Decrease in half-life of pemigatinib following rifampin coadministration [4]: 63%

Pemigatinib AUC Ratio, Observed ([4]; po): 1.88
Pemigatinib Cmax Ratio, Observed ([4]; po): 1.17
SMILES: CCC(C)n1ncn(-c2ccc(N3CCN(c4ccc(OCC5COC(Cn6cncn6)(c6ccc(Cl)cc6Cl)O5)cc4)CC3)cc2)c1=O (stereo not drawn) [Itraconazole, reference compound]

Mean Percent of Pemigatinib Remaining After 30-Minute Incubation (N = 3) [1]: 70 ± 3%
SMILES: Nc1ccc(S(=O)(=O)Nc2ccnn2-c2ccccc2)cc1 [Sulfaphenazole]

— US11628162B2, “Methods of treating cancer with an FGFR inhibitor” (Incyte Corporation, priority 2019, dated 2023)
